For the first assay, the system named is SK-MES-1. In words: relative viability (nuclei count vs DMSO), 5 days (fraction); higher = more cells survive. As to conditions: first compound 0.4 µM. Put shortly: (§1)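 Each reported value is a median over duplicate plates. It expresses relative viability: treated-well nuclei count divided by vehicle-well nuclei count. Lung cancer cell lines in 1536-well plates were dosed by pin tool a day after seeding, alone with one drug or with a fixed anchor-drug dose plus five library-drug doses (not always all listed) in √10 steps, and nuclei were counted after 5 days.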
For the molecule `COc1cc(N2CCC(C(N)=O)CC2)ccc1Nc1nc(N)c(Cl)c(Nc2ccccc2S(=O)(=O)C(C)C)n1` [HG-5-88-01] + N=C(N)NC(=N)NCCc1ccccc1 [Phenformin] (partner 250 µM), the relative viability was determined as 0.652.

As for `Clc1ccc(Nc2nnc(Cc3ccncc3)c3ccccc23)cc1` [Vatalanib] + COc1cccc2cc(-c3nc([C@H]4CC[C@H](C(=O)O)CC4)n4ncnc(N)c34)[nH]c12 [OSI-027] (partner 0.5 µM), the relative viability came to 0.77.

As to `Clc1ccc(Nc2nnc(Cc3ccncc3)c3ccccc23)cc1` [Vatalanib] + N=C(N)NC(=N)NCCc1ccccc1 [Phenformin] (partner 250 µM), the relative viability came out at 0.753.

`Clc1ccc(Nc2nnc(Cc3ccncc3)c3ccccc23)cc1` [Vatalanib] + Nc1nc2[nH]cc(CCc3ccc(C(=O)N[C@@H](CCC(=O)O)C(=O)O)cc3)c2c(=O)[nH]1 [Pemetrexed] (partner 0.2 µM) showed a relative viability of 1.05.

Still in this assay, the particulars now being: first compound 1.265 µM.
Molecule `COc1cc(N2CCC(C(N)=O)CC2)ccc1Nc1nc(N)c(Cl)c(Nc2ccccc2S(=O)(=O)C(C)C)n1` [HG-5-88-01] + N=C(N)NC(=N)NCCc1ccccc1 [Phenformin] (partner 250 µM) yielded a relative viability of 0.602.

In turn, `Clc1ccc(Nc2nnc(Cc3ccncc3)c3ccccc23)cc1` [Vatalanib] + COc1cccc2cc(-c3nc([C@H]4CC[C@H](C(=O)O)CC4)n4ncnc(N)c34)[nH]c12 [OSI-027] (partner 0.5 µM) yielded a relative viability of 0.578.

`Clc1ccc(Nc2nnc(Cc3ccncc3)c3ccccc23)cc1` [Vatalanib] + N=C(N)NC(=N)NCCc1ccccc1 [Phenformin] (partner 250 µM) gave a relative viability of 0.572.

As to `Clc1ccc(Nc2nnc(Cc3ccncc3)c3ccccc23)cc1` [Vatalanib] + Nc1nc2[nH]cc(CCc3ccc(C(=O)N[C@@H](CCC(=O)O)C(=O)O)cc3)c2c(=O)[nH]1 [Pemetrexed] (partner 0.2 µM), the relative viability turned out to be 0.912.

Still in this assay, the particulars now being: first compound 4 µM.
In the case of `COc1cc(N2CCC(C(N)=O)CC2)ccc1Nc1nc(N)c(Cl)c(Nc2ccccc2S(=O)(=O)C(C)C)n1` [HG-5-88-01] + N=C(N)NC(=N)NCCc1ccccc1 [Phenformin] (partner 250 µM), the relative viability is 0.643.

Molecule `Clc1ccc(Nc2nnc(Cc3ccncc3)c3ccccc23)cc1` [Vatalanib] + COc1cccc2cc(-c3nc([C@H]4CC[C@H](C(=O)O)CC4)n4ncnc(N)c34)[nH]c12 [OSI-027] (partner 0.5 µM) came in with a relative viability of 0.575.

`Clc1ccc(Nc2nnc(Cc3ccncc3)c3ccccc23)cc1` [Vatalanib] + N=C(N)NC(=N)NCCc1ccccc1 [Phenformin] (partner 250 µM) gave a relative viability of 0.537.

`Clc1ccc(Nc2nnc(Cc3ccncc3)c3ccccc23)cc1` [Vatalanib] + Nc1nc2[nH]cc(CCc3ccc(C(=O)N[C@@H](CCC(=O)O)C(=O)O)cc3)c2c(=O)[nH]1 [Pemetrexed] (partner 0.2 µM) had a relative viability of 0.787.

For a further assay, the system named is LOU-NH91. Described as above. As to conditions: first compound 0.04 µM. The method, boiled down: as §1
In turn, `COc1cc(N2CCC(C(N)=O)CC2)ccc1Nc1nc(N)c(Cl)c(Nc2ccccc2S(=O)(=O)C(C)C)n1` [HG-5-88-01] + N=C(N)NC(=N)NCCc1ccccc1 [Phenformin] (partner 250 µM) came in with a relative viability of 0.701.

In the case of `Clc1ccc(Nc2nnc(Cc3ccncc3)c3ccccc23)cc1` [Vatalanib] + COc1cccc2cc(-c3nc([C@H]4CC[C@H](C(=O)O)CC4)n4ncnc(N)c34)[nH]c12 [OSI-027] (partner 0.5 µM), the relative viability was 0.712.

`Clc1ccc(Nc2nnc(Cc3ccncc3)c3ccccc23)cc1` [Vatalanib] + N=C(N)NC(=N)NCCc1ccccc1 [Phenformin] (partner 250 µM) came in with a relative viability of 0.694.

As for `Clc1ccc(Nc2nnc(Cc3ccncc3)c3ccccc23)cc1` [Vatalanib] + Nc1nc2[nH]cc(CCc3ccc(C(=O)N[C@@H](CCC(=O)O)C(=O)O)cc3)c2c(=O)[nH]1 [Pemetrexed] (partner 0.2 µM), the relative viability turned out to be 0.417.

Staying with this assay, now noted: first compound 0.1265 µM.
For the molecule `COc1cc(N2CCC(C(N)=O)CC2)ccc1Nc1nc(N)c(Cl)c(Nc2ccccc2S(=O)(=O)C(C)C)n1` [HG-5-88-01] + N=C(N)NC(=N)NCCc1ccccc1 [Phenformin] (partner 250 µM), the relative viability turned out to be 0.721.

In the case of `Clc1ccc(Nc2nnc(Cc3ccncc3)c3ccccc23)cc1` [Vatalanib] + COc1cccc2cc(-c3nc([C@H]4CC[C@H](C(=O)O)CC4)n4ncnc(N)c34)[nH]c12 [OSI-027] (partner 0.5 µM), the relative viability came out at 0.738.

For the molecule `Clc1ccc(Nc2nnc(Cc3ccncc3)c3ccccc23)cc1` [Vatalanib] + N=C(N)NC(=N)NCCc1ccccc1 [Phenformin] (partner 250 µM), the relative viability was determined as 0.679.

`Clc1ccc(Nc2nnc(Cc3ccncc3)c3ccccc23)cc1` [Vatalanib] + Nc1nc2[nH]cc(CCc3ccc(C(=O)N[C@@H](CCC(=O)O)C(=O)O)cc3)c2c(=O)[nH]1 [Pemetrexed] (partner 0.2 µM) displayed a relative viability of 0.378.

The same assay, now with this note: first compound 0.4 µM.
Molecule `COc1cc(N2CCC(C(N)=O)CC2)ccc1Nc1nc(N)c(Cl)c(Nc2ccccc2S(=O)(=O)C(C)C)n1` [HG-5-88-01] + N=C(N)NC(=N)NCCc1ccccc1 [Phenformin] (partner 250 µM) yielded a relative viability of 0.664.

The molecule `Clc1ccc(Nc2nnc(Cc3ccncc3)c3ccccc23)cc1` [Vatalanib] + Nc1nc2[nH]cc(CCc3ccc(C(=O)N[C@@H](CCC(=O)O)C(=O)O)cc3)c2c(=O)[nH]1 [Pemetrexed] (partner 0.2 µM) gave a relative viability of 0.373.

The assay is the same for the next values; noted with them: first compound 1.265 µM.
`COc1cc(N2CCC(C(N)=O)CC2)ccc1Nc1nc(N)c(Cl)c(Nc2ccccc2S(=O)(=O)C(C)C)n1` [HG-5-88-01] + N=C(N)NC(=N)NCCc1ccccc1 [Phenformin] (partner 250 µM) registered a relative viability of 0.421.

On to `Clc1ccc(Nc2nnc(Cc3ccncc3)c3ccccc23)cc1` [Vatalanib] + COc1cccc2cc(-c3nc([C@H]4CC[C@H](C(=O)O)CC4)n4ncnc(N)c34)[nH]c12 [OSI-027] (partner 0.5 µM), for which the relative viability was 0.728.

Turning to `Clc1ccc(Nc2nnc(Cc3ccncc3)c3ccccc23)cc1` [Vatalanib] + N=C(N)NC(=N)NCCc1ccccc1 [Phenformin] (partner 250 µM), the relative viability amounted to 0.697.

The molecule `Clc1ccc(Nc2nnc(Cc3ccncc3)c3ccccc23)cc1` [Vatalanib] + Nc1nc2[nH]cc(CCc3ccc(C(=O)N[C@@H](CCC(=O)O)C(=O)O)cc3)c2c(=O)[nH]1 [Pemetrexed] (partner 0.2 µM) gave a relative viability of 0.366.

Still in this assay, the particulars now being: first compound 4 µM.
`COc1cc(N2CCC(C(N)=O)CC2)ccc1Nc1nc(N)c(Cl)c(Nc2ccccc2S(=O)(=O)C(C)C)n1` [HG-5-88-01] + N=C(N)NC(=N)NCCc1ccccc1 [Phenformin] (partner 250 µM) had a relative viability of 0.416.

Take `Clc1ccc(Nc2nnc(Cc3ccncc3)c3ccccc23)cc1` [Vatalanib] + COc1cccc2cc(-c3nc([C@H]4CC[C@H](C(=O)O)CC4)n4ncnc(N)c34)[nH]c12 [OSI-027] (partner 0.5 µM): the relative viability was 0.625.

Take `Clc1ccc(Nc2nnc(Cc3ccncc3)c3ccccc23)cc1` [Vatalanib] + N=C(N)NC(=N)NCCc1ccccc1 [Phenformin] (partner 250 µM): the relative viability worked out at 0.668.

`Clc1ccc(Nc2nnc(Cc3ccncc3)c3ccccc23)cc1` [Vatalanib] + Nc1nc2[nH]cc(CCc3ccc(C(=O)N[C@@H](CCC(=O)O)C(=O)O)cc3)c2c(=O)[nH]1 [Pemetrexed] (partner 0.2 µM) gave a relative viability of 0.361.

The record behind these values is the supplement of paper PMC10307832.
